Reference: ChEMBL document CHEMBL1127670, “Comparative molecular field analysis of the antitumor activity of 9H-thioxanthen-9-one derivatives against pancreatic ductal carcinoma 03” (1994)

tested on: Mus musculus; experiment: The compound was tested for in vivo growth inhibition of pancreatic ductal adenocarcinoma (Panc 03) in mice.; format: functional

SMILES	T/C [%]
CCN(CC)CCNc1ccc(CNS(=O)(=O)c2ccc(N)cc2)c2sc3ccccc3c(=O)c12	3
CCN(CC)CCNc1ccc(/C=N/c2ccccc2)c2sc3ccccc3c(=O)c12	2
CCCCCCC(=O)OCc1ccc(NCCN(CC)CC)c2c(=O)c3ccccc3sc12	2

tested on: Mus musculus; experiment: Compound was tested for in vivo growth inhibition of pancreatic ductal adenocarcinoma (Panc 03) in mice, expressed as antitumor efficacy; range is 0-10; format: functional

SMILES	T/C
CNCc1ccc(NCCN(C)C)c2c(=O)c3ccccc3sc12	10 score (0-10)
CCN(CC)CCNc1ccc(CN(C)S(=O)(=O)CC)c2sc3ccccc3c(=O)c12	0 score (0-10)
CNCc1ccc(NCCCN(C)C)c2c(=O)c3ccccc3sc12	10 score (0-10)
CCN(CC)CCNc1ccc(CNS(=O)(=O)c2ccccc2)c2sc3ccccc3c(=O)c12	10 score (0-10)
CCN(CC)CCNc1ccc(CSC)c2sc3ccccc3c(=O)c12	10 score (0-10)

tested on: Mus musculus; experiment: Compound was tested for in vivo growth inhibition of pancreatic ductal adenocarcinoma (Panc 03) in mice, expressed as antitumor efficacy; range is 11-25; format: functional

SMILES	T/C [%]
Cc1ccc(NCCN(C)C)c2c(=O)c3ccccc3sc12	25
CCN(CC)CCNc1ccc(CNC(=O)c2ccccc2)c2sc3ccccc3c(=O)c12	25
CCN(CC)CCNc1ccc(CO)c2sc3ccccc3c(=O)c12 [HYCANTHONE]	25

tested on: Mus musculus; experiment: Compound was tested for in vivo growth inhibition of pancreatic ductal adenocarcinoma (Panc 03) in mice, expressed as antitumor efficacy; range is 26-42; format: functional

SMILES	T/C [%]
CCN(CC)CCNc1ccc(CN(C)C)c2sc3ccccc3c(=O)c12	42
CCN(CC)CCNc1ccc(COC)c2sc3ccccc3c(=O)c12	26
CCN(CC)CCNc1ccc(COC(=O)C(C)(C)C)c2sc3ccccc3c(=O)c12	42

tested on: Mus musculus; experiment: Compound was tested for in vivo growth inhibition of pancreatic ductal adenocarcinoma (Panc 03) in mice, expressed as antitumor efficacy; format: functional

SMILES	T/C [%]
CCN(CC)CCNc1ccc(CN(CC)S(C)(=O)=O)c2sc3ccccc3c(=O)c12	0
CN(C)CCNc1ccc(CNS(C)(=O)=O)c2sc3ccccc3c(=O)c12	0
CCN(CC)CCNc1ccc(C(N)=O)c2sc3ccccc3c(=O)c12	0
CCN(CC)CCNc1ccc(CNC(C)=O)c2sc3ccccc3c(=O)c12	0
CCN(CC)CCNc1ccc(CN(C)S(C)(=O)=O)c2sc3ccccc3c(=O)c12	0
CCN(C=O)Cc1ccc(NCCN(CC)CC)c2c(=O)c3ccccc3sc12	0
CCNCc1ccc(NCCN(CC)CC)c2c(=O)c3ccccc3sc12	0
CN(C)CCNc1ccc(CN)c2sc3ccccc3c(=O)c12	0
